Measured values taken from patent US20090018111A1, “Novel Antimicrobial Medicament” (priority 2004, published 2009).

Experiments:
Assay in all cases: Sensitivity test (agar dilution), clinical isolate
Assay type in all cases: cell-based, Serratia marcescens
[1] = tested on: S. marcescens 1944950
Protocol: (§1) In addition, the antibacterial activities were tested against strains which are comparatively less sensitive to β-lactam compounds, namely clinically isolated 13 strains of Acinetobacter calcoaceticus and Acinetobacter lwoffi, clinically isolated 11 strains of Serratia marcescens, clinically isolated 12 strains of Burkholderia cepacia, and clinically isolated 15 strains of Pseudomonas aeruginosa.
(§2) According to the standard method of Japan Chemotherapeutic Society (Chemotherapy, vol. […], p 76-79 (1981)) the test was carried out using the agar dilution method. After dissolving test samples in distilled water, agar medium containing the test samples was prepared in such a manner that the final concentration became twice serial dilution by pouring serially diluted combination drug solution or a single drug solution into agar medium. As agar medium was used Mueller Hinton Agar medium (MHA). Then, each strain was cultivated over night at 37° C. in an incubator and suspended in buffered saline solution with gelatin (BSG) in the concentration of about 10^6 CFU/ml. The suspension (about 5 μl) containing test strains was inoculated to the medium containing the test samples by Micro Planter.
(§3) Each drug was weighed, and dissolved in distilled water to give a test sample. When the drugs are used in combination, two kinds of solution containing each drug were mixed so as to be various ratio of concentration to give a mixed solution. When the sample is subjected to sensitivity test, this mixed solution was diluted by twice serial dilution method.
(§4) Furthermore, when the drug is solely used, each test sample was used as it is, and diluted by twice serial dilution method from the maximum concentration to the minimum concentration.

[2] = tested on: S. marcescens 2012884
Protocol: as §1, §2, §3, §4

[3] = tested on: S. marcescens 14981
Protocol: as §1, §2, §3, §4

[4] = tested on: S. marcescens 1928513
Protocol: as §1, §2, §3, §4

[5] = tested on: S. marcescens 14424
Protocol: as §1, §2, §3, §4

[6] = tested on: S. marcescens 14991
Protocol: as §1, §2, §3, §4

[7] = tested on: S. marcescens 14689
Protocol: as §1, §2, §3, §4

[8] = tested on: S. marcescens 14425
Protocol: as §1, §2, §3, §4

[9] = tested on: S. marcescens 7138
Protocol: as §1, §2, §3, §4

[10] = tested on: S. marcescens 2054522
Protocol: as §1, §2, §3, §4

[11] = tested on: S. marcescens 7155
Protocol: as §1, §2, §3, §4

[12] = Serratia marcescens, 1944950, Concomitant (ME:SM = 1:1)
[13] = Serratia marcescens, 1944950, Concomitant (ME:SM = 1:2)
[14] = Serratia marcescens, 1944950, Concomitant (ME:SM = 1:4)
[15] = Serratia marcescens, 1944950, Concomitant (ME:SM = 2:1)
[16] = Serratia marcescens, 1944950, alone
[17] = Serratia marcescens, 2012884, Concomitant (ME:SM = 1:1)
[18] = Serratia marcescens, 2012884, Concomitant (ME:SM = 1:2)
[19] = Serratia marcescens, 2012884, Concomitant (ME:SM = 1:4)
[20] = Serratia marcescens, 2012884, Concomitant (ME:SM = 2:1)
[21] = Serratia marcescens, 2012884, alone
[22] = Serratia marcescens, 14981, Concomitant (ME:SM = 1:1)
[23] = Serratia marcescens, 14981, Concomitant (ME:SM = 1:2)
[24] = Serratia marcescens, 14981, Concomitant (ME:SM = 1:4)
[25] = Serratia marcescens, 14981, Concomitant (ME:SM = 2:1)
[26] = Serratia marcescens, 14981, alone
[27] = Serratia marcescens, 1928513, Concomitant (ME:SM = 1:1)
[28] = Serratia marcescens, 1928513, Concomitant (ME:SM = 1:2)
[29] = Serratia marcescens, 1928513, Concomitant (ME:SM = 1:4)
[30] = Serratia marcescens, 1928513, Concomitant (ME:SM = 2:1)
[31] = Serratia marcescens, 1928513, alone
[32] = Serratia marcescens, 14424, Concomitant (ME:SM = 1:1)
[33] = Serratia marcescens, 14424, Concomitant (ME:SM = 1:2)
[34] = Serratia marcescens, 14424, Concomitant (ME:SM = 1:4)
[35] = Serratia marcescens, 14424, Concomitant (ME:SM = 2:1)
[36] = Serratia marcescens, 14424, alone
[37] = Serratia marcescens, 14991, Concomitant (ME:SM = 1:1)
[38] = Serratia marcescens, 14991, Concomitant (ME:SM = 1:2)
[39] = Serratia marcescens, 14991, Concomitant (ME:SM = 1:4)
[40] = Serratia marcescens, 14991, Concomitant (ME:SM = 2:1)
[41] = Serratia marcescens, 14991, alone
[42] = Serratia marcescens, 14689, Concomitant (ME:SM = 1:1)
[43] = Serratia marcescens, 14689, Concomitant (ME:SM = 1:2)
[44] = Serratia marcescens, 14689, Concomitant (ME:SM = 1:4)
[45] = Serratia marcescens, 14689, Concomitant (ME:SM = 2:1)
[46] = Serratia marcescens, 14689, alone
[47] = Serratia marcescens, 14425, Concomitant (ME:SM = 1:1)
[48] = Serratia marcescens, 14425, Concomitant (ME:SM = 1:2)
[49] = Serratia marcescens, 14425, Concomitant (ME:SM = 1:4)
[50] = Serratia marcescens, 14425, Concomitant (ME:SM = 2:1)
[51] = Serratia marcescens, 14425, alone
[52] = Serratia marcescens, 7138, Concomitant (ME:SM = 1:1)
[53] = Serratia marcescens, 7138, Concomitant (ME:SM = 1:2)
[54] = Serratia marcescens, 7138, Concomitant (ME:SM = 1:4)
[55] = Serratia marcescens, 7138, Concomitant (ME:SM = 2:1)
[56] = Serratia marcescens, 7138, alone
[57] = Serratia marcescens, 2054522, Concomitant (ME:SM = 1:1)
[58] = Serratia marcescens, 2054522, Concomitant (ME:SM = 1:2)
[59] = Serratia marcescens, 2054522, Concomitant (ME:SM = 1:4)
[60] = Serratia marcescens, 2054522, Concomitant (ME:SM = 2:1)
[61] = Serratia marcescens, 2054522, alone
[62] = Serratia marcescens, 7155, Concomitant (ME:SM = 1:1)
[63] = Serratia marcescens, 7155, Concomitant (ME:SM = 1:2)
[64] = Serratia marcescens, 7155, Concomitant (ME:SM = 1:4)
[65] = Serratia marcescens, 7155, Concomitant (ME:SM = 2:1)
[66] = Serratia marcescens, 7155, alone

## C[C@@H](O)[C@H]1C(=O)N2C(C(=O)O)=C(S[C@@H]3CN[C@H](C(=O)N(C)C)C3)[C@H](C)[C@H]12 [MEPM, meropenem]
[1]; [12]
  MIC: 8 µg/mL
[1]; [13]
  MIC: 4 µg/mL
[1]; [14]
  MIC: 4 µg/mL
[1]; [15]
  MIC: 8 µg/mL
[1]; [16]
  MIC: 8 µg/mL
[2]; [17]
  MIC: 2 µg/mL
[2]; [18]
  MIC: 2 µg/mL
[2]; [19]
  MIC: 1 µg/mL
[2]; [20]
  MIC: 4 µg/mL
[2]; [21]
  MIC: 4 µg/mL
[3]; [22]
  MIC: 1 µg/mL
[3]; [23]
  MIC: 0.5 µg/mL
[3]; [24]
  MIC: 0.5 µg/mL
[3]; [25]
  MIC: 1 µg/mL
[3]; [26]
  MIC: 1 µg/mL
[4]; [27]
  MIC: 1 µg/mL
[4]; [28]
  MIC: 0.5 µg/mL
[4]; [29]
  MIC: 0.5 µg/mL
[4]; [30]
  MIC: 1 µg/mL
[4]; [31]
  MIC: 1 µg/mL
[5]; [32]
  MIC: 8 µg/mL
[5]; [33]
  MIC: 2 µg/mL
[5]; [34]
  MIC: 2 µg/mL
[5]; [35]
  MIC: 4 µg/mL
[5]; [36]
  MIC: 4 µg/mL
[6]; [37]
  MIC: 2 µg/mL
[6]; [38]
  MIC: 1 µg/mL
[6]; [39]
  MIC: 1 µg/mL
[6]; [40]
  MIC: 1 µg/mL
[6]; [41]
  MIC: 1 µg/mL
[7]; [42]
  MIC: 2 µg/mL
[7]; [43]
  MIC: 2 µg/mL
[7]; [44]
  MIC: 2 µg/mL
[7]; [45]
  MIC: 4 µg/mL
[7]; [46]
  MIC: 4 µg/mL
[8]; [47]
  MIC: 0.031 µg/mL
[8]; [48]
  MIC: 0.031 µg/mL
[8]; [49]
  MIC: 0.031 µg/mL
[8]; [50]
  MIC: 0.031 µg/mL
[8]; [51]
  MIC: 0.031 µg/mL
[9]; [52]
  MIC: 2 µg/mL
[9]; [53]
  MIC: 1 µg/mL
[9]; [54]
  MIC: 0.5 µg/mL
[9]; [55]
  MIC: 2 µg/mL
[9]; [56]
  MIC: 2 µg/mL
[10]; [57]
  MIC: 1 µg/mL
[10]; [58]
  MIC: 0.5 µg/mL
[10]; [59]
  MIC: 0.5 µg/mL
[10]; [60]
  MIC: 1 µg/mL
[10]; [61]
  MIC: 1 µg/mL
[11]; [62]
  MIC: 2 µg/mL
[11]; [63]
  MIC: 1 µg/mL
[11]; [64]
  MIC: 0.5 µg/mL
[11]; [65]
  MIC: 2 µg/mL
[11]; [66]
  MIC: 2 µg/mL

## C[C@H]1C=C(c2csc(SC3=C(C(=O)O)N4C(=O)[C@H]([C@@H](C)O)[C@H]4[C@H]3C)n2)CN1 [SM, (4R,5S,6S)-6-[(1R)-1-Hydroxyethyl]-4-methyl-3-({4-[(5S)-5-methyl-2,5-dihydro-1H-pyrrol-3-yl]-1,3-thiazol-2-yl}sulfanyl)-7-oxo-1-azabicyclo[3.2.0]hept-2-ene-2-carboxylic acid]
[1]; [12]
  MIC: 8 µg/mL
[1]; [13]
  MIC: 8 µg/mL
[1]; [14]
  MIC: 16 µg/mL
[1]; [15]
  MIC: 4 µg/mL
[1]; [16]
  MIC: 32 µg/mL
[2]; [17]
  MIC: 2 µg/mL
[2]; [18]
  MIC: 4 µg/mL
[2]; [19]
  MIC: 4 µg/mL
[2]; [20]
  MIC: 2 µg/mL
[2]; [21]
  MIC: 8 µg/mL
[3]; [22]
  MIC: 1 µg/mL
[3]; [23]
  MIC: 1 µg/mL
[3]; [24]
  MIC: 2 µg/mL
[3]; [25]
  MIC: 0.5 µg/mL
[3]; [26]
  MIC: 8 µg/mL
[4]; [27]
  MIC: 1 µg/mL
[4]; [28]
  MIC: 1 µg/mL
[4]; [29]
  MIC: 2 µg/mL
[4]; [30]
  MIC: 0.5 µg/mL
[4]; [31]
  MIC: 8 µg/mL
[5]; [32]
  MIC: 8 µg/mL
[5]; [33]
  MIC: 4 µg/mL
[5]; [34]
  MIC: 8 µg/mL
[5]; [35]
  MIC: 2 µg/mL
[5]; [36]
  MIC: 16 µg/mL
[6]; [37]
  MIC: 2 µg/mL
[6]; [38]
  MIC: 2 µg/mL
[6]; [39]
  MIC: 4 µg/mL
[6]; [40]
  MIC: 0.5 µg/mL
[6]; [41]
  MIC: 32 µg/mL
[7]; [42]
  MIC: 2 µg/mL
[7]; [43]
  MIC: 4 µg/mL
[7]; [44]
  MIC: 8 µg/mL
[7]; [45]
  MIC: 2 µg/mL
[7]; [46]
  MIC: 32 µg/mL
[8]; [47]
  MIC: 0.031 µg/mL
[8]; [48]
  MIC: 0.063 µg/mL
[8]; [49]
  MIC: 0.125 µg/mL
[8]; [50]
  MIC: 0.016 µg/mL
[8]; [51]
  MIC: 2 µg/mL
[9]; [52]
  MIC: 2 µg/mL
[9]; [53]
  MIC: 2 µg/mL
[9]; [54]
  MIC: 2 µg/mL
[9]; [55]
  MIC: 1 µg/mL
[9]; [56]
  MIC: 8 µg/mL
[10]; [57]
  MIC: 1 µg/mL
[10]; [58]
  MIC: 1 µg/mL
[10]; [59]
  MIC: 2 µg/mL
[10]; [60]
  MIC: 0.5 µg/mL
[10]; [61]
  MIC: 8 µg/mL
[11]; [62]
  MIC: 2 µg/mL
[11]; [63]
  MIC: 2 µg/mL
[11]; [64]
  MIC: 2 µg/mL
[11]; [65]
  MIC: 1 µg/mL
[11]; [66]
  MIC: 8 µg/mL
